Patent US10010547B2 (CASCADIAN THERAPEUTICS, INC., priority 2014, dated 2018)
pIC50: −log10 of the molar value. Counter-ions that a name gives are not always drawn. Like-named read-outs stand apart in the source and are kept apart here.

Legend:
Chk-1 kinase = Chk-1 kinase (Homo sapiens (Human), UniProt O14757); experiment: Chk-1 Kinase Inhibiting Activity (33P-ATP filter assay, CHKtide substrate); format: biochemical; conditions: against Chk-1 kinase; read-out: IC50
In short: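 Full-length N-terminal GST-tagged human Chk-1 from insect cells, 0.5 nM final, with 20 μM peptide substrate and 33P-ATP in HEPES pH 7.5 buffer with 1% DMSO. Reaction ran 120 minutes at room temperature; incorporated radioactivity captured on P81 filters and counted for IC50.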

MIA PaCa-2 cells = experiment: Gemcitabine Combination Cell Assay (Cell Titer Glo); format: cell-based; conditions: for pIC50 / IC50: Homo sapiens; for pIC50: Chk1 inhibitor alone, read-out: Chk1 IC50; for pIC50 / 10xLS / 2xLS: MIA PaCa-2 cells, 72 h; for 10xLS: approximate concentration of Chk1 inhibitor that results in a 10-fold reduction in the IC50 of gemcitabine alone; for 2xLS: approximate concentration of Chk1 inhibitor that results in a two-fold reduction in the IC50 of gemcitabine alone; for IC50: MIA PaCa-2, 72 h, read-out: Chk1 IC50 (nM)
In short: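 MIA PaCa-2 cells were treated 72 h with half-log dilutions of Chk1 inhibitor (top 3000 nM) and gemcitabine (top 100 nM), alone and in full matrix; viability by CellTiter-Glo luminescence. IC50s from four-parameter fit; Chk1 inhibitor concentrations giving two- and ten-fold lowering of gemcitabine IC50 were estimated.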

Chk-1 kinase, sequence (O14757 whole entry): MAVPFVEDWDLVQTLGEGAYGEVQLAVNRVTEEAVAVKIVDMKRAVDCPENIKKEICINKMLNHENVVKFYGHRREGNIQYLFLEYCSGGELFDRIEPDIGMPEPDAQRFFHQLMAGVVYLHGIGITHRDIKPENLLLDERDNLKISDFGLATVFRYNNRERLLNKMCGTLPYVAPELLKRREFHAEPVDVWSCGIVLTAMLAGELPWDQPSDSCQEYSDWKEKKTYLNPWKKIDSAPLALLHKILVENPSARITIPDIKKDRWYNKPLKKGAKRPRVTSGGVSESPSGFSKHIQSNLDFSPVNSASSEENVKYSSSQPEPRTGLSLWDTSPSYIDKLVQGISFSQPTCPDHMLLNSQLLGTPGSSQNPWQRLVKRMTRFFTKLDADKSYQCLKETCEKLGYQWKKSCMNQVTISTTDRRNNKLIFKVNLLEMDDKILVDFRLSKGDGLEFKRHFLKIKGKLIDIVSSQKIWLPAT

pIC50 (Chk-1 kinase) | pIC50 (MIA PaCa-2 cells) | SMILES | 10xLS (MIA PaCa-2 cells) | 2xLS (MIA PaCa-2 cells) | IC50 (MIA PaCa-2 cells)
8.51 | 5.64 | CC(C)Oc1cc(C2CCNCC2)ccc1-c1cc(Nc2cnc(C#N)cn2)n[nH]1 [Example 53, 5-[[5-[2-isopropoxy-4-(4-piperidyl)phenyl]-1H-pyrazol-3-yl]amino]pyrazine-2-carbonitrile] | 1000 nM | 100 nM | 
9.92 | 6.62 | COc1cc(C2(F)CCN(C(C)C)CC2)ccc1-c1cc(Nc2cnc(C#N)cn2)n[nH]1 [Example 86, 5-[[5-[4-(4-fluoro-1-isopropyl-4-piperidyl)-2-methoxy-phenyl]-1H-pyrazol-3-yl]amino]pyrazine-2-carbonitrile] | <100 nM | <3 nM | 
10.09 | 6.51 | COc1cc(N2CCN(CC(C)C)CC2)ccc1-c1cc(Nc2cnc(C#N)cn2)n[nH]1 [Example 142, 5-[[5-[4-(4-isobutylpiperazin-1-yl)-2-methoxy-phenyl]-1H-pyrazol-3-yl]amino]pyrazine-2-carbonitrile] | 100 nM | 3 nM | 
10.66 | 5.92 | CCN1CCO[C@H](c2ccc(-c3cc(Nc4cnc(C#N)cn4)n[nH]3)c(OC)c2)C1 [Example 118, 5-[[5-[2-methoxy-4-[(2R)-4-ethylmorpholin-2-yl]phenyl]-1H-pyrazol-3-yl]amino]pyrazine-2-carbonitrile] | 300 nM | 3 nM | 
8.10 | 5.66 | COc1c(-c2cc(Nc3cnc(C#N)cn3)n[nH]2)ccc(C2CCN(C)CC2)c1Cl [Example 69, 5-[[5-[3-chloro-2-methoxy-4-(1-methyl-4-piperidyl)phenyl]-1H-pyrazol-3-yl]amino]pyrazine-2-carbonitrile] | 1000 nM | 100 nM | 
10.26 | 6.70 | COc1cc(CN2CCCC2)ccc1-c1cc(Nc2cnc(C#N)cn2)n[nH]1 [Example 101, 5-[[5-[2-methoxy-4-(pyrrolidin-1-ylmethyl)phenyl]-1H-pyrazol-3-yl]amino]pyrazine-2-carbonitrile] | <100 nM | 3 nM | 
10.08 | 6.06 | COc1cc(C2CCN(CC(N)=O)CC2)ccc1-c1cc(Nc2cnc(C#N)cn2)n[nH]1 [Example 62, 2-[4-[4-[3-[(5-cyanopyrazin-2-yl)amino]-1H-pyrazol-5-yl]-3-methoxy-phenyl]-1-piperidyl]acetamide] | 300 nM | 10 nM | 
10.01 | 6.47 | COc1cc(CN[C@@H](C)c2ccc(F)cc2)ccc1-c1cc(Nc2cnc(C#N)cn2)n[nH]1 [Example 6, 5-[5-(4-{[(S)-1-(4-fluoro-phenyl)-ethylamino]-methyl}-2-methoxy-phenyl)-1H-pyrazol-3-ylamino]-pyrazine-2-carbonitrile] | 300 nM | 30 nM | 
10.02 | 6.55 | COc1cc(OCC2CCNCC2)ccc1-c1cc(Nc2cnc(C#N)cn2)n[nH]1 [Example 36, 5-[[5-[2-methoxy-4-(4-piperidylmethoxy)phenyl]-1H-pyrazol-3-yl]amino]pyrazine-2-carbonitrile] | 100 nM | 3 nM | 
9.60 | 6.86 | CCN1CCC(F)(c2ccc(-c3cc(Nc4cnc(C#N)cn4)n[nH]3)c(OC)c2)CC1 [Example 85, 5-[[5-[4-(1-ethyl-4-fluoro-4-piperidyl)-2-methoxy-phenyl]-1H-pyrazol-3-yl]amino]pyrazine-2-carbonitrile] | 100 nM | 3 nM | 
10.28 | 6.64 | CCN1CCN(c2cc(F)c(-c3cc(Nc4cnc(C#N)cn4)n[nH]3)c(OC)c2)CC1 [Example 136, 5-[[5-[4-(4-ethylpiperazin-1-yl)-2-fluoro-6-methoxy-phenyl]-1H-pyrazol-3-yl]amino]pyrazine-2-carbonitrile] | 100 nM | 3 nM | 
8.74 | 5.88 | COc1cc(C2CCN(C)CC2)c(Cl)cc1-c1cc(Nc2cnc(C#N)cn2)n[nH]1 [Example 67, 5-[[5-[5-chloro-2-methoxy-4-(1-methyl-4-piperidyl)phenyl]-1H-pyrazol-3-yl]amino]pyrazine-2-carbonitrile] | 1000 nM | 100 nM | 
10.64 | 6.80 | CCN1CCC[C@H]1COc1ccc(-c2cc(Nc3cnc(C#N)cn3)n[nH]2)c(OC)c1 [Example 128, 5-[[5-[4-[[(2S)-1-ethylpyrrolidin-2-yl]methoxy]-2-methoxy-phenyl]-1H-pyrazol-3-yl]amino]pyrazine-2-carbonitrile] | <100 nM | <3 nM | 
9.80 | 6.76 | COc1cc(CNC2CCOC2)ccc1-c1cc(Nc2cnc(C#N)cn2)n[nH]1 (stereo not shown) [Example 72, 5-[[5-[2-methoxy-4-[(tetrahydrofuran-3-ylamino)methyl]phenyl]-1H-pyrazol-3-yl]amino]pyrazine-2-carbonitrile] | 100 nM | 10 nM | 
9.54 | 5.95 | COc1cc(C2CCNCC2)ccc1-c1cc(Nc2cnc(C#N)cn2)n[nH]1 [Example 20, 5-[[5-[2-methoxy-4-(4-piperidyl)phenyl]-1H-pyrazol-3-yl]amino]pyrazine-2-carbonitrile] | 100 nM | ~5 nM | 
10.00 | 6.68 | COc1cc(CN[C@H](C)c2ccc(F)cc2)ccc1-c1cc(Nc2cnc(C#N)cn2)n[nH]1 [Example 7, 5-[5-(4-{[(R)-1-(4-fluoro-phenyl)-ethylamino]-methyl}-2-methoxy-phenyl)-1H-pyrazol-3-ylamino]-pyrazine-2-carbonitrile] | ~200 nM | 10 nM | 
9.46 | 6.55 | COc1cc(NCC2CCOCC2)ccc1-c1cc(Nc2cnc(C#N)cn2)n[nH]1 [Example 74, 5-[[5-[2-methoxy-4-(tetrahydropyran-4-ylmethylamino)phenyl]-1H-pyrazol-3-yl]amino]pyrazine-2-carbonitrile] | 100 nM | 3 nM | 
9.16 | 6.87 | COc1cc(O[C@@H]2CCN(C)C2)ccc1-c1cc(Nc2cnc(C#N)cn2)n[nH]1 [Example 78, 5-[[5-[2-methoxy-4-[(3R)-1-methylpyrrolidin-3-yl]oxy-phenyl]-1H-pyrazol-3-yl]amino]pyrazine-2-carbonitrile] | 100 nM | 10 nM | 
10.06 | 7.09 | COc1cc(NCC2CCN(C(C)C)CC2)ccc1-c1cc(Nc2cnc(C#N)cn2)n[nH]1 [Example 109, 5-[[5-[4-[(1-isopropyl-4-piperidyl)methylamino]-2-methoxy-phenyl]-1H-pyrazol-3-yl]amino]pyrazine-2-carbonitrile] | <30 nM | <3 nM | 
9.85 | 6.74 | COc1cc(OCC2CCCN2)ccc1-c1cc(Nc2cnc(C#N)cn2)n[nH]1 (stereo not shown) [Example 34, 5-[[5-[2-methoxy-4-(pyrrolidin-2-ylmethoxy)phenyl]-1H-pyrazol-3-yl]amino]pyrazine-2-carbonitrile] | 100 nM | 3 nM | 

SMILES | pIC50 (Chk-1 kinase) | pIC50 (MIA PaCa-2 cells) | 10xLS (MIA PaCa-2 cells) | 2xLS (MIA PaCa-2 cells) | IC50 (MIA PaCa-2 cells)
CCN1CCC(c2ccc(-c3cc(Nc4cnc(C#N)cn4)n[nH]3)c(OC)c2)CC1 [Example 60, 5-[[5-[4-(1-ethyl-4-piperidyl)-2-methoxy-phenyl]-1H-pyrazol-3-yl]amino]pyrazine-2-carbonitrile hydrochloride] | 10.00 |  | 100 nM | 3 nM | 329 nM
COc1cc(C2CCN(C)CC2(F)F)ccc1-c1cc(Nc2cnc(C#N)cn2)n[nH]1 (stereo not shown) [Example 97, 5-[[5-[4-(3,3-Difluoro-1-methyl-4-piperidyl)-2-methoxy-phenyl]-1H-pyrazol-3-yl]amino]pyrazine-2-carbonitrile hydrochloride] | 8.96 |  | 300 nM | 10 nM | 1500 nM
